How the values were obtained:
[1] = biological target: mouse LMP7 (Mus musculus, UniProt O09061+P28063); assay: Cellular LMP7 activity in mouse P3X63Ag8.653 cells; format: cell-based
[2] = biological target: immunoproteasome subunit LMP2 (Homo sapiens, UniProt P28065+P40306); assay: Cell-free proteasome subunit peptide cleavage assay, LMP2; format: biochemical
[3] = system: primary human cells; assay: BioMAP Diversity PLUS Panel for Broad Phenotypic Profiling; format: cell-based
[4] = biological target: immunoproteasome subunit MECL-1 (Homo sapiens, UniProt P40306+P49720); assay: Cell-free proteasome subunit peptide cleavage assay, MECL-1; format: biochemical
[5] = biological target: constitutive proteasome subunit β1 (Homo sapiens, UniProt P28072+Q99436); assay: Cell-free proteasome subunit peptide cleavage assay, β1; format: biochemical
[6] = biological target: constitutive proteasome subunit β2 (Homo sapiens, UniProt P49720+Q99436); assay: Cell-free proteasome subunit peptide cleavage assay, β2; format: biochemical

Row | IC50 [1] | IC50 [2] | IC50 [4] | IC50 [5] | IC50 [6] | Structure (SMILES) | cytotoxicity toward primary human B cells, PBMCs, mononuclear cells, and venular endothelial cells ([3]; 33 nmol/L) | proliferation of primary human coronary artery smooth muscle cells, endothelial cells, fibroblasts, and T cells ([3]; non-cytotoxic concentration of 11 nmol/L)
1 | 5.3 nM | – | – | – | – | CC(C)C[C@H](NC(=O)[C@H](Cc1ccccc1)NC(=O)c1cnccn1)B(O)O [Bortezomib] | – | –
2 | – | 0.9 ± 0.2 nM | 5470 nM | 28 ± 22 nM | > 30000 nM | CC(C)C[C@H](NC(=O)CNC(=O)c1cc(Cl)ccc1Cl)B(O)O [Ixazomib] | cytotoxic | reduced proliferation
